One may read the Ki as the dissociation constant of the complex between target and ligand, obtained from inhibition or displacement.

The experiment concerns the target T1, Cytochrome P450cam (CYP101) (Pseudomonas putida, UniProt P00183).
T1 sequence (P00183 2-415): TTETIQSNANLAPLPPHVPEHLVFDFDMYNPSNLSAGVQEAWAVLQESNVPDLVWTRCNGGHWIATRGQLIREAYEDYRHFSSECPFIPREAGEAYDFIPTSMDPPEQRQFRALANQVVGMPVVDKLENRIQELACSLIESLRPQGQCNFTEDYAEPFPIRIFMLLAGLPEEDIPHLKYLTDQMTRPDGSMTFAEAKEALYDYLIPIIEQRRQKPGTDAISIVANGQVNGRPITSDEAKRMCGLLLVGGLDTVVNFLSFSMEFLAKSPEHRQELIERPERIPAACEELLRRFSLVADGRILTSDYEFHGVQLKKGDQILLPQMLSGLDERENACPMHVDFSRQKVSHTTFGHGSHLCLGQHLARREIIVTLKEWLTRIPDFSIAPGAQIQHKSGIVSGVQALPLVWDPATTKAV
Put plainly: enzyme/DNA film biosensor. The class given is biochemical.

`c1c[nH]cn1` [Imid., imidazole] had a Ki of 245 µM.

Molecule `O=C(O)Cc1c[nH]cn1` [Imid.4AA, imidazole-4-acetic acid] came in with a Ki of 142 µM.

Values taken from PMC2684828 (Analytical chemistry, 2009).
